Where a name gives a salt, the structure may show the parent alone. Read-outs that look alike come from different tables or passages of the source.
Experiments:
[1] = tested on: C57BL/6JOlaHsd mice; assay type: in vivo
[2] = tested on: CB2 receptor knockout mice; assay type: in vivo
[3] = tested on: C57BL/6JOlaHsd mice; assay: Ear scratch response (ESR) / grooming, urge-like behavior; assay type: in vivo
Method: 1. CB2 receptor selective ligands or CB2/SERM ligands were injected intraperitoneally or orally at doses of 0.001 to 100 mg/kg one to two hours before the injection of DOI. In order to test the effect of DOI on head twitch responses, ear scratch and grooming responses, DOI was intraperitoneally injected at a dose of 1 mg/kg.
ESR behavior is a measure for urge-like behavior and often preceded HTRs. The ESR is a rapid scratching movement of the head, neck, ears, or other body surfaces by either hindlimbs. The number of ESRs was manually counted. Every ESR was also counted as a grooming. In some experiments, each ESR was considered as a separate episode if the animal moved. In some experiments, each ESR was considered as a separate episode for every ESR.
Grooming behavior is a measure for anxiety. Grooming behavior in mice is characterized by licking its fur, groom with the forepaws, or scratch with any limb. Often the mouse will mix all of these grooming behaviors. The number of grooms was manually counted. In some experiments, each grooming behavior was considered as a separate episode if the animal moved its hindlimbs. In some experiments, each grooming behavior was considered as a separate episode for every grooming behavior.

[4] = tested on: mice; conditions: 5 mg/kg during postnatal days 5-13; measured at the age of 12 weeks; cited from earlier work
[5] = tested on: C57BL/6JOlaHsd mice; assay: Marble burying test (MBT), compulsive behavior; assay type: in vivo; conditions: one hour after a single injection, age 6 weeks
Method: Mice were habituated to the test room for 1 h. A mouse was injected with DOI as above and then placed in the experimental cage (white plastic 36×24.5×14.5 cm) filled with 5 cm sawdust for 5 min, in the absence of marbles. The mouse was taken out and twenty black glass were arranged 4 by 5 with 7 cm apart and 1 cm apart from the wells of the cage. Each mouse was tested for its marble burying activity for 30 min. Activity was videotaped with EthoVision and buried marbles were counted manually at the end of the experiment (after 30 min). A marble considered as buried when it was sawdust-covered by two third of its volume.
Marbles that were moved were also counted.
With a view to study the effect of the JTE-907 and M1 compositions on repetitive behavior, C57BL/6JOlaHsd mice were intraperitoneally injected at age 6 weeks with a single dose of JTE-907 at 0.2-50 mg/kg, M1 at 0.2-50 mg/kg or equivalent vehicle. The number of buried marbles in the burying marble test by each mouse was recorded.

[6] = tested on: Sabra mice; assay: Ultrasonic vocals after postnatal SR141716A (vocal tic-like behavior); assay type: in vivo
[7] = tested on: osteoclastogenesis; conditions: Schuehly et al. 2011; cited from earlier work
[8] = target: GPR55 (Homo sapiens, UniProt Q9Y2T6); conditions: Schuehly et al. 2011; cited from earlier work
GPR55, sequence (Q9Y2T6 whole entry, species assumed): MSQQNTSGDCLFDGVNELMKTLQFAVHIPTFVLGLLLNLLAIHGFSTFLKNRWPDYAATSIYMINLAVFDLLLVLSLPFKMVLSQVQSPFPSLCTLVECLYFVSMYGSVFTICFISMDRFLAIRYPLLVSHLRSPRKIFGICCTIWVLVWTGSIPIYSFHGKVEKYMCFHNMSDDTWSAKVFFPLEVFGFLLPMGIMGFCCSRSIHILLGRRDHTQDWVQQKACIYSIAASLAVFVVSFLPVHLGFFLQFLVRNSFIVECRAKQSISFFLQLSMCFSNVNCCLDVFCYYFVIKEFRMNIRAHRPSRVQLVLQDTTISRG

[9] = target: T1, cyclooxygenase 2 (COX-2) (Homo sapiens, UniProt P35354); conditions: Schuehly et al. 2011; cited from earlier work
T1 sequence (P35354 18-604): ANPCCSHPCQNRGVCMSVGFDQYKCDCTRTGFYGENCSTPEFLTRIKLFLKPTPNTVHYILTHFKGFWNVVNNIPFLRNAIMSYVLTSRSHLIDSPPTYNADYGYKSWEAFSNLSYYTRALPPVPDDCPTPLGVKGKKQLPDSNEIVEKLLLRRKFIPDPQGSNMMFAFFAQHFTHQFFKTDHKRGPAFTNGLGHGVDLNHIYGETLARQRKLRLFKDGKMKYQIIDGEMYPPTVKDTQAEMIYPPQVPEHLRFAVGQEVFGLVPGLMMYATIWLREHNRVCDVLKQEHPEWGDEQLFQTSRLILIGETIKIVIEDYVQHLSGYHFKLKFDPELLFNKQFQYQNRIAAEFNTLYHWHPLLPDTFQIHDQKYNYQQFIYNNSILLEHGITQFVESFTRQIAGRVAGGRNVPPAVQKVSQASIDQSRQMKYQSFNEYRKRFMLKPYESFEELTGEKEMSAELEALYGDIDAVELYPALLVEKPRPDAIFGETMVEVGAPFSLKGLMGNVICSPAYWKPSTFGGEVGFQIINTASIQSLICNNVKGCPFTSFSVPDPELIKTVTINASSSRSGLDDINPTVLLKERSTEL

[10] = tested on: Tourette syndrome (TS) patients; conditions: patient reports; cited from earlier work
[11] = model inducer, 1 mg/kg i.p., age three weeks up to 21 weeks
[12] = 0.2 mg/kg i.p. single dose, one hour before DOI 1 mg/kg i.p., age 3 weeks
[13] = 5 mg/kg i.p. single dose, one hour before DOI 1 mg/kg i.p., age 3 weeks
[14] = 1-20 mg/kg i.p., no DOI, age 6 weeks
[15] = 10 mg/kg i.p. single dose, one hour before DOI 1 mg/kg i.p., age 3 weeks

Structure (SMILES): COc1cc(CC(C)N)c(OC)cc1I.Cl (single isomer, unassigned; (-)) [DOI, (−)-1-(2,5-dimethoxy-4-iodophenyl)-2-aminopropane hydrochloride]
- head twitch response [1, 11]: increased
- HTR frequency in CB2 receptor knockout mice ([2]; model inducer, 1 mg/kg i.p., 6 weeks old): increased
- ear scratch response and grooming behavior [3, 11]: increased

Structure (SMILES): C=C1CC/C=C(\C)CC[C@@H]2[C@@H]1CC2(C)C [BCP, beta-caryophyllene]
- DOI-induced repetitive head twitches ([1]; dose not stated): able to reduce

Structure (SMILES): CCCCCCC(C)(C)c1cc(OC)c([C@@H]2C=C(CO)[C@@H]3C[C@H]2C3(C)C)c(OC)c1 [HU-308, [(1R,2R,5R)-2-[2,6-dimethoxy-4-(2-methyloctan-2-yl)phenyl]-7,7-dimethyl-4-bicyclo[3.1.1]hept-3-enyl] methanol]
- DOI-induced HTR frequency [1, 12]: reduced
- repetitive behavior (HTR) with the drug alone ([1]; 0.2 mg/kg i.p., saline instead of DOI, age 3 weeks): significantly increased
- DOI-induced HTR frequency [1, 13]: reduced
- DOI-induced HTR frequency in CB2 receptor knockout mice ([2]; 5 mg/kg i.p., one hour before DOI 1 mg/kg i.p., male, age 6-21 weeks): significantly reduces
- motor tics/head twitches in the open field test [4]: induce abnormal motor tics/head twitches

Structure (SMILES): CCCCCOc1c(OC)ccc2cc(C(=O)NCc3ccc4c(c3)OCO4)c(=O)[nH]c12 [JTE-907, N-(benzo[1,3]dioxol-5-ylmethyl)-7-methoxy-2-oxo-8-pentyloxy-1,2-dihydroquinoline-3-carboxamide]
- DOI-induced HTR frequency [1, 12]: reduced
- DOI-induced HTR frequency [1, 13]: reduced
- number of buried marbles ([5]; 5 mg/kg i.p.): reduced

Structure (SMILES): C=CCc1ccc(O)c(-c2ccc(OC)c(CC=C)c2)c1 [MH, 2-(4-Methoxy-3-prop-2-enylphenyl)-4-prop-2-enylphenol]
- DOI-induced HTRs ([1]; 1 mg/kg i.p. single dose, one hour before DOI 1 mg/kg i.p., age 3 weeks): reduced
- DOI-induced HTRs ([1]; 1 mg/kg i.p. single dose, one hour before DOI 1 mg/kg i.p., age 6 weeks): reduced
- DOI-induced HTR frequency ([1]; 1 mg/kg oral (gavage) in self-emulsifying oral formulation, two hours before DOI 1 mg/kg i.p., age 3 weeks): significantly reduced
- DOI-induced HTR frequency [1, 13]: reduced
- DOI-induced HTRs ([1]; 5 mg/kg i.p. single dose, one hour before DOI 1 mg/kg i.p., age 6 weeks): reduced
- DOI-induced HTR frequency ([1]; 5 mg/kg oral (gavage) in self-emulsifying oral formulation, two hours before DOI 1 mg/kg i.p., age 3 weeks): significantly reduced
- HTR induced by the drug alone [1, 14]: did not induce HTR at any dose
- effect to reverse DOI-induced HTR, comparison of ages ([1]; i.p., 20 min from DOI injection, age 3 weeks vs 6 weeks): higher at age 3 weeks than 6 weeks
- effect on DOI-induced HTR frequency, 1 mg/kg compared with 5 mg/kg ([1]; oral formulation, age 3 weeks): greater
- urge-like response induced by the drug alone [3, 14]: did not induce urge-like response at any dose
- frequency of DOI-induced ESR behavior (urge-like behavior) ([3]; i.p., one hour before DOI 1 mg/kg i.p., dose not given): reduced
- vocal tic-like behavior (number of ultrasonic vocal events) ([6]; SR141716A 5 mg/kg s.c. postnatal day 1-3, drug 5 mg/kg s.c. at age 13 days, one hour before recording): significantly reduces
- number of buried marbles ([5]; 10 mg/kg i.p.): reduced
- osteoclastogenesis [7]: potently inhibits
- GPR55 activity [8]: not
- COX-2 enzymatic activity [9]: inhibits

Structure (SMILES): Cc1c(C(=O)NN2CCCCC2)nn(-c2ccc(Cl)cc2Cl)c1-c1ccc(Cl)cc1 [SR141716A]
- vocalization of mice pups vs control litter mates ([6]; administered at the age of one to two days): higher level of vocalization and/or higher number of vocals

Structure (SMILES): CCN(CC)CCOc1ccc(C(=C(Cl)c2ccccc2)c2ccccc2)cc1 [clomiphene citrate]
- DOI-induced HTR frequency [1, 15]: did not significantly reverse

Structure (SMILES): O=C(c1ccc(OCCN2CCCCC2)cc1)c1c(-c2ccc(O)cc2)sc2cc(O)ccc12 [raloxifene]
- DOI-induced HTR frequency [1, 15]: reduced

Structure (SMILES): CCCCCc1cc(O)c2c(c1)OC(C)(C)[C@@H]1CCC(C)=C[C@@H]21 [Δ^9-tetrahydrocannabinol]
- tic frequency [10]: ameliorate

Source: patent US10795976B2, “Program randomization for cyber-attack resilient control in programmable logic controllers” (Siemens Aktiengesellschaft, priority 2016, dated 2020)
